Positions of bridges follow the written chain, without caps; N, C: chain ends. Non-standard residues stand in square brackets, D forms with d. Residues, ends and D or L forms follow the SMILES beside them. *: point of attachment. Trp(1-CH2COOH) = N[C@@H](Cc1cn(CC(=O)O)c2ccccc12)C(=O)O; Phe(3-COOH) = N[C@@H](Cc1cccc(C(=O)O)c1)C(=O)O; NH(CH2CH2O)8Me = COCCOCCOCCOCCOCCOCCOCCOCCN*; NMePhe(3-Cl) = CN[C@@H](Cc1cccc(Cl)c1)C(=O)O; 3Pal(6-NH2) = Nc1ccc(C[C@H](N)C(=O)O)cn1; NMeY = CN[C@@H](Cc1ccc(O)cc1)C(=O)O; 3Pal = N[C@@H](Cc1cccnc1)C(=O)O; 4Pal = N[C@@H](Cc1ccncc1)C(=O)O; PEG4 = NCCOCCOCCOCCOCCC(=O)O; Carboxymethyl = O=C(O)C*; NHCH2CH2OH = OCCN*
target: T1, human transferrin receptor (hTfR) (Homo sapiens, UniProt P02786); experiment: Evaluation of molecular interaction between transferrin receptor (hTfR) and peptide using surface plasmon resonance (SPR); format: binding; conditions: KD class for binding to hTfR by SPR; peptide with the linker shown in the same line; 'low signal indicates no activity'; read-out: SPR
T1 construct: made in house
T1 sequence (P02786 89-760 limits assumed): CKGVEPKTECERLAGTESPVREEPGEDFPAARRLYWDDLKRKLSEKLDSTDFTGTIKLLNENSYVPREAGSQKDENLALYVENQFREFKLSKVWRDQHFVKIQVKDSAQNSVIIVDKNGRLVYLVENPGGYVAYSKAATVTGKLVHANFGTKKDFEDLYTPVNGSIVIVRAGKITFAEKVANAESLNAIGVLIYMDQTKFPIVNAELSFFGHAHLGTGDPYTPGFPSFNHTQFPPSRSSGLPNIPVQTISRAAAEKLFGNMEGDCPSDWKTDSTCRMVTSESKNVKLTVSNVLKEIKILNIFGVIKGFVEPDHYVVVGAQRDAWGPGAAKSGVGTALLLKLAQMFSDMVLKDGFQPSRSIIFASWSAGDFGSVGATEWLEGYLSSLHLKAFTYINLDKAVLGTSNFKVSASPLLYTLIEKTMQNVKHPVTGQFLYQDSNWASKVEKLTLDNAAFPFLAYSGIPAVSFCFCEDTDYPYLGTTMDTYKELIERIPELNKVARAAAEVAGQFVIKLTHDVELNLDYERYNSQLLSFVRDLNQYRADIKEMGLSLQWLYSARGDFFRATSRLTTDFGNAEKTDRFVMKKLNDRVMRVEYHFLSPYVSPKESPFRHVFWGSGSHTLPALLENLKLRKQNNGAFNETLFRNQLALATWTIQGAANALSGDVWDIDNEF
Description: Evaluation Test of Molecular Interaction Between Transferrin Receptor (hTfR) and Peptide Using Surface Plasmon Resonance (SPR)
The intermolecular interactions of various synthesized peptides with the transferrin receptor (hTfR) by surface plasmon resonance (SPR) of the peptides were tested by the methods described below. Specific test methods are shown below.
NTA sensor chip (Global Life Sciences Technologies Japan K.K.) was inserted into BiacoreT200 (Global Life Sciences Technologies Japan K.K.), then the priming operation was performed three times by using running buffer containing: 10 mM HEPES pH 8.0 (Nacalai Tesque, Inc.), 150 mM NaCl (Nacalai Tesque, Inc.), 0.05% Tween 20 (Nacalai Tesque, Inc.), 0.1% BSA (SIGMA-ALDRICH) and 1.0% DMSO (FUJIFILM Wako Pure Chemical Corporation), and equilibrated at a flow rate of 30 μL/min. 350 mM EDTA solution was reacted at a flow rate of 10 μL/min for 60 seconds, 0.5 mM […] solution (Kishida Chemical Co., Ltd.) was reacted at a flow rate of 10 μL/min for 60 seconds, and then the NTA sensor chip was washed with 3 mM EDTA solution (Nacalai Tesque, Inc.) at a flow rate of 10 μL/min for 60 seconds. After mixing 50 μL each of 60 mM EDC solution (Global Life Science Technologies Japan K.K.) and 650 mM NHS solution (Global Life Science Technologies Japan K.K.), the reaction was carried out at a flow rate of 10 μL/min for 420 seconds. 150 μL of 0.5 μM hTfR dimer solution was prepared by dilution with running buffer and reacted at a flow rate of 10 μL/min for 300 seconds to immobilize hTfR on the NTA sensor chip. For the human transferrin receptor (hTfR), recombinant hTfR described in Example 2 of WO2018/124121 was used. After immobilization, capping was performed by reacting with 1.0 M ethanolamine solution (Global Life Sciences Technologies Japan K.K.) at a flow rate of 10 μL/min for 420 seconds. Peptide lysate prepared in DMSO solution to 10 mM was diluted with running buffer to be a final concentration of 10 μM peptide lysate, then peptide solutions of 100 nM, 50 nM, 25 nM, 10 nM, and 5 nM were prepared. Using the above samples, the kinetics of the peptide against hTfR was obtained by SPR measurement.
The kinetic evaluation model was single-cycle kinetics, and curve fitting was performed using Biacore T200 Evaluation Software Version 3.0 (Global Life Science Technologies Japan K.K.). The binding of the peptide to hTfR was evaluated by performing curve fitting on the obtained sensorgram by least squares method and obtaining the KD value.

Kd [nM]	SMILES
1 to 100	CC[C@H](C)[C@@H]1NC(=O)[C@H](Cc2ccc(OCC(=O)O)cc2)NC(=O)[C@H](Cc2ccc(N)nc2)NC(=O)[C@H](CC(N)=O)NC(=O)[C@H](Cc2c[nH]c3ccccc23)NC(=O)[C@H](C(C)C)NC(=O)[C@H](Cc2cccc(Cl)c2)N(C)C(=O)[C@H](C(C)C)NC(=O)[C@H](C)NC(=O)CSC[C@@H](C(=O)NCCOCCOCCOCCOCCC(N)=O)NC(=O)[C@H](Cc2ccc(O)cc2)N(C)C(=O)[C@H](Cc2ccccc2)NC(=O)[C@H](CCCNC(=N)N)NC(=O)[C@H](CCCNC(=N)N)NC(=O)[C@H]([C@@H](C)CC)NC1=O [894_0358] ({CH2CO}-AV[NMePhe(3-Cl)]VWN[3Pal(6-NH2)]Y(Carboxymethyl)IIRRF[NMeY]C[PEG4]-NH2; thioether N-15)
1 to 100	CC[C@H](C)[C@@H]1NC(=O)[C@H](Cc2ccc(OC)cc2)NC(=O)[C@H](Cc2ccc(N)nc2)NC(=O)[C@H](CC(N)=O)NC(=O)[C@H](Cc2c[nH]c3ccccc23)NC(=O)[C@H](C(C)C)NC(=O)[C@H](Cc2cccc(Cl)c2)N(C)C(=O)[C@H](C(C)C)NC(=O)[C@H](C)NC(=O)CSC[C@@H](C(=O)NCCOCCOCCOCCOCCC(N)=O)NC(=O)[C@H](Cc2ccc(O)cc2)N(C)C(=O)[C@H](Cc2cccc(C(=O)O)c2)NC(=O)[C@H](CCCNC(=N)N)NC(=O)[C@H](CCCNC(=N)N)NC(=O)[C@H]([C@@H](C)CC)NC1=O [894_0359] ({CH2CO}-AV[NMePhe(3-Cl)]VWN[3Pal(6-NH2)]Y(Me)IIRR[Phe(3-COOH)][NMeY]C[PEG4]-NH2; thioether N-15)
1 to 100	CC[C@H](C)[C@@H]1NC(=O)[C@H](Cc2cccnc2)NC(=O)[C@H](Cc2ccc(O)cc2)NC(=O)[C@H](CC(N)=O)NC(=O)[C@H](Cc2c[nH]c3ccccc23)NC(=O)[C@H](C(C)C)NC(=O)[C@H](Cc2cccc(Cl)c2)N(C)C(=O)[C@H](C(C)C)NC(=O)[C@H](C)NC(=O)CSC[C@@H](C(=O)NCCOCCOCCOCCOCCC(N)=O)NC(=O)[C@H](Cc2ccc(O)cc2)N(C)C(=O)[C@H](Cc2ccccc2)NC(=O)[C@H](CCC(=O)NCCOCCOCCOCCOCCOCCOCCOCCOC)NC(=O)[C@H](CCCNC(=N)N)NC(=O)[C@H]([C@@H](C)CC)NC1=O [894_0360] ({CH2CO}-AV[NMePhe(3-Cl)]VWNY[3Pal]IIRE(NH(CH2CH2O)8Me)F[NMeY]C[PEG4]-NH2; thioether N-15)
1 to 100	CC[C@H](C)[C@@H]1NC(=O)[C@H](Cc2cccnc2)NC(=O)[C@H](Cc2ccc(O)cc2)NC(=O)[C@H](CC(N)=O)NC(=O)[C@H](Cc2c[nH]c3ccccc23)NC(=O)[C@H](C(C)C)NC(=O)[C@H](Cc2cccc(Cl)c2)N(C)C(=O)[C@H](C(C)C)NC(=O)[C@H](C)NC(=O)CSC[C@@H](C(=O)NCCOCCOCCOCCOCCC(N)=O)NC(=O)[C@H](Cc2ccc(O)cc2)N(C)C(=O)[C@H](Cc2cccc(C(=O)O)c2)NC(=O)[C@H](CCCNC(=N)N)NC(=O)[C@H](CCCNC(=N)N)NC(=O)[C@H]([C@@H](C)CC)NC1=O [894_0361] ({CH2CO}-AV[NMePhe(3-Cl)]VWNY[3Pal]IIRR[Phe(3-COOH)][NMeY]C[PEG4]-NH2; thioether N-15)
1 to 100	CC[C@H](C)[C@@H]1NC(=O)[C@H](Cc2ccc(OCC(=O)O)cc2)NC(=O)[C@H](Cc2ccc(O)cc2)NC(=O)[C@H](CC(N)=O)NC(=O)[C@H](Cc2c[nH]c3ccccc23)NC(=O)[C@H](C(C)C)NC(=O)[C@H](Cc2cccc(Cl)c2)N(C)C(=O)[C@H](C(C)C)NC(=O)[C@H](C)NC(=O)CSC[C@@H](C(=O)NCCOCCOCCOCCOCCC(N)=O)NC(=O)[C@H](Cc2ccc(O)cc2)N(C)C(=O)[C@H](Cc2cccc(C(=O)O)c2)NC(=O)[C@H](CCCNC(=N)N)NC(=O)[C@H](CCCNC(=N)N)NC(=O)[C@H]([C@@H](C)CC)NC1=O [894_0363]
1 to 100	CC[C@H](C)[C@@H]1NC(=O)[C@H](Cc2ccc(OCC(=O)O)cc2)NC(=O)[C@H](Cc2ccc(O)cc2)NC(=O)[C@H](CC(N)=O)NC(=O)[C@H](Cc2c[nH]c3ccccc23)NC(=O)[C@H](C(C)C)NC(=O)[C@H](Cc2cccc(Cl)c2)N(C)C(=O)[C@H](C(C)C)NC(=O)[C@H](C)NC(=O)CSC[C@@H](C(=O)NCCOCCOCCOCCOCCC(N)=O)NC(=O)[C@H](Cc2ccc(O)cc2)N(C)C(=O)[C@H](Cc2ccncc2)NC(=O)[C@H](CCCNC(=N)N)NC(=O)[C@H](CCCNC(=N)N)NC(=O)[C@H]([C@@H](C)CC)NC1=O [894_0364]
1 to 100	CC[C@H](C)[C@@H]1NC(=O)[C@H](Cc2ccc(OC)cc2)NC(=O)[C@H](Cc2ccc(O)cc2)NC(=O)[C@H](CC(N)=O)NC(=O)[C@H](Cc2c[nH]c3ccccc23)NC(=O)[C@H](C(C)C)NC(=O)[C@H](Cc2cccc(Cl)c2)N(C)C(=O)[C@H](C(C)C)NC(=O)[C@H](C)NC(=O)CSC[C@@H](C(=O)NCCOCCOCCOCCOCCC(N)=O)NC(=O)[C@H](Cc2ccc(O)cc2)N(C)C(=O)[C@H](Cc2ccncc2)NC(=O)[C@H](CCC(=O)NCCOCCOCCOCCOCCOCCOCCOCCOC)NC(=O)[C@H](CCCNC(=N)N)NC(=O)[C@H]([C@@H](C)CC)NC1=O [894_0366] ({CH2CO}-AV[NMePhe(3-Cl)]VWNYY(Me)IIRE(NH(CH2CH2O)8Me)[4Pal][NMeY]C[PEG4]-NH2; thioether N-15)
< 1	CC[C@H](C)[C@@H]1NC(=O)[C@H](Cc2ccc(OCC(=O)O)cc2)NC(=O)[C@H](Cc2ccc(O)cc2)NC(=O)[C@H](CC(N)=O)NC(=O)[C@H](Cc2cn(CC(=O)O)c3ccccc23)NC(=O)[C@H](C(C)C)NC(=O)[C@H](Cc2cccc(Cl)c2)N(C)C(=O)[C@H](C(C)C)NC(=O)[C@H](C)NC(=O)CSC[C@@H](C(=O)NCCOCCOCCOCCOCCC(N)=O)NC(=O)[C@H](Cc2ccc(O)cc2)N(C)C(=O)[C@H](Cc2ccccc2)NC(=O)[C@H](CCCNC(=N)N)NC(=O)[C@H](CCCCNC(=O)OC)NC(=O)[C@H]([C@@H](C)CC)NC1=O [894_0378]
1 to 100	CC[C@H](C)[C@@H]1NC(=O)[C@H](Cc2ccc(OCC(=O)O)cc2)NC(=O)[C@H](Cc2ccc(O)cc2)NC(=O)[C@H](CC(N)=O)NC(=O)[C@H](Cc2cn(CC(=O)O)c3ccccc23)NC(=O)[C@H](C(C)C)NC(=O)[C@H](Cc2cccc(Cl)c2)N(C)C(=O)[C@H](C(C)C)NC(=O)[C@H](C)NC(=O)CSC[C@@H](C(=O)NCCOCCOCCOCCOCCC(N)=O)NC(=O)[C@H](Cc2ccc(O)cc2)N(C)C(=O)[C@H](Cc2ccccc2)NC(=O)[C@H](CCCCNC(=O)OC)NC(=O)[C@H](CCCNC(=N)N)NC(=O)[C@H]([C@@H](C)CC)NC1=O [894_0379]
1 to 100	CC[C@H](C)[C@@H]1NC(=O)[C@H](Cc2ccc(OCC(=O)O)cc2)NC(=O)[C@H](Cc2ccc(O)cc2)NC(=O)[C@H](CC(N)=O)NC(=O)[C@H](Cc2cn(CC(=O)O)c3ccccc23)NC(=O)[C@H](C(C)C)NC(=O)[C@H](Cc2cccc(Cl)c2)N(C)C(=O)[C@H](C(C)C)NC(=O)[C@H](C)NC(=O)CSC[C@@H](C(=O)NCCOCCOCCOCCOCCC(N)=O)NC(=O)[C@H](Cc2ccc(O)cc2)N(C)C(=O)[C@H](Cc2ccccc2)NC(=O)[C@H](CCCNC(=N)N)NC(=O)[C@H](CCC(=O)NCCO)NC(=O)[C@H]([C@@H](C)CC)NC1=O [894_0380]
1 to 100	CC[C@H](C)[C@@H]1NC(=O)[C@H](Cc2ccc(OCC(=O)O)cc2)NC(=O)[C@H](Cc2ccc(O)cc2)NC(=O)[C@H](CC(N)=O)NC(=O)[C@H](Cc2cn(CC(=O)O)c3ccccc23)NC(=O)[C@H](C(C)C)NC(=O)[C@H](Cc2cccc(Cl)c2)N(C)C(=O)[C@H](C(C)C)NC(=O)[C@H](C)NC(=O)CSC[C@@H](C(=O)NCCOCCOCCOCCOCCC(N)=O)NC(=O)[C@H](Cc2ccc(O)cc2)N(C)C(=O)[C@H](Cc2ccccc2)NC(=O)[C@H](CCC(=O)NCCO)NC(=O)[C@H](CCCNC(=N)N)NC(=O)[C@H]([C@@H](C)CC)NC1=O [894_0381]
< 1	CC[C@H](C)[C@@H]1NC(=O)[C@H](Cc2ccc(OCC(=O)O)cc2)NC(=O)[C@H](Cc2ccc(O)cc2)NC(=O)[C@H](CC(N)=O)NC(=O)[C@H](Cc2cn(CC(=O)O)c3ccccc23)NC(=O)[C@H](C(C)C)NC(=O)[C@H](Cc2cccc(Cl)c2)N(C)C(=O)[C@H](C(C)C)NC(=O)[C@H](C)NC(=O)CSC[C@@H](C(=O)NCCOCCOCCOCCOCCC(N)=O)NC(=O)[C@H](Cc2ccc(O)cc2)N(C)C(=O)[C@H](Cc2ccccc2)NC(=O)[C@H](CCC(=O)NCCO)NC(=O)[C@H](CCC(=O)NCCO)NC(=O)[C@H]([C@@H](C)CC)NC1=O [894_0382] ({CH2CO}-AV[NMePhe(3-Cl)]V[Trp(1-CH2COOH)]NYY(Carboxymethyl)IIE(NHCH2CH2OH)E(NHCH2CH2OH)F[NMeY]C[PEG4]-NH2; thioether N-15)
